Experimental data taken from US20100029615A1, “BENZIMIDAZOLE DERIVATIVES” (priority 2006, published 2010).
Where a name gives a salt, the structure may show the parent alone.

The molecules below were run against T1, SMO (Mus musculus, UniProt P56726) (assay: Smoothened (SMO)/Sonic Hedgehog (SHh) Transient Transcriptional Activation Assay (Gli-luciferase reporter in C3H10T1/2 cells)). Details: 2 uM test compound, SHh 250 ng/ml, 20 hrs.
T1 construct: endogenous in cells; host or cells: C3H10T1/2 (ATCC #CCL-226)
Assay type: cell-based, murine
How it was run: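 Luminescence (Dual-Glo) measured after 20 h co-exposure at 37 °C to 250 ng/ml human SHh and compound at 2 uM down to 2 nM final. Cells were C3H10T1/2 carrying a transfected murine 10× Gli response-element luciferase construct with pEGFP, starved 20 h in 0.5% calf serum beforehand.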

T1 sequence (P56726 33-793): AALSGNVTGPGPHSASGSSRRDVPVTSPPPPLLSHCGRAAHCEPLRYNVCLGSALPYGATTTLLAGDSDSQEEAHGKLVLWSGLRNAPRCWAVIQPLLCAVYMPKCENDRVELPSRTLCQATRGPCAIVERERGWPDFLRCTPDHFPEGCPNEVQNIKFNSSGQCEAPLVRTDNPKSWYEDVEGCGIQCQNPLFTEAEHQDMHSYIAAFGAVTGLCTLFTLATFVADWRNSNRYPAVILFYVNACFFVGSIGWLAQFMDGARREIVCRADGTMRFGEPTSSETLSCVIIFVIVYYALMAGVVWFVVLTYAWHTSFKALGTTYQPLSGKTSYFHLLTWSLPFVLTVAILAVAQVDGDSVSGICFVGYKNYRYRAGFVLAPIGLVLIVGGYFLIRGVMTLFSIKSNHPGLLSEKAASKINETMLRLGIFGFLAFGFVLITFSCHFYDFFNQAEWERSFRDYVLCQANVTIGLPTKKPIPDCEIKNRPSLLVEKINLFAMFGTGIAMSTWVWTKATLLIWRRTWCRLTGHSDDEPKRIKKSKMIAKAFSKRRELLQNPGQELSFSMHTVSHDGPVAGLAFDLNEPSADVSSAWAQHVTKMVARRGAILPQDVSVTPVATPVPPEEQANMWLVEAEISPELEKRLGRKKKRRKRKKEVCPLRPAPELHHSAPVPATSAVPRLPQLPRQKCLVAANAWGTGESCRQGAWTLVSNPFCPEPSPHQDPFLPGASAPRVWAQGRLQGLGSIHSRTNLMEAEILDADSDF

SMO % inhibition at 2 uM [%] | Molecule
106 | N-(3-(6-(Cyanomethyl)-1-methyl-1H-benzo[d]imidazol-2-yl)cyclohexyl)-2,3-dihydrobenzo[b][1,4]dioxine-6-carboxamide and N-(3-(5-(Cyanomethyl)-1-methyl-1H-benzo[d]imidazol-2-yl)cyclohexyl)-2,3-dihydrobenzo[b][1,4]dioxine-6-carboxamide [Example 35]
97 | N-(3-(6-(2-Hydroxypropan-2-yl)-1-methyl-1H-benzo[d]imidazol-2-yl)cyclohexyl)-2,3-dihydrobenzo[b][1,4]dioxine-6-carboxamide and N-(3-(5-(2-Hydroxypropan-2-yl)-1-methyl-1H-benzo[d]imidazol-2-yl)cyclohexyl)-2,3-dihydrobenzo[b][1,4]dioxine-6-carboxamide [Example 31]

Same assay, conditions: C3H 10T1/2, 2 uM test compound, SHh 250 ng/ml, 20 hrs, read-out: SMO % inhibition at 2 uM

inhibition at 2 µM [%] | Molecule
98 | COc1cc(OC)cc(C(=O)NC2CCCC(c3nc4ccccc4n3CCO)C2)c1 (racemic) [Example 13, N-(3-(1-(2-Hydroxyethyl)-1H-benzo[d]imidazol-2-yl)cyclohexyl)-3,5-dimethoxybenzamide (cis-isomer)]

Same assay, conditions: C3H 10T1/2, 2 μM test compound, SHh 250 ng/ml, 20 hrs, read-out: SMO CELL % INHIBITION @ 2 μM

Molecule | inhibition at 2 µM [%]
Cc1cn2cc(CCC(=O)NC3CCCC(c4nc5ccccc5[nH]4)C3)nc2s1 (stereo not shown) [Example 116, N-[3-(1H-benzimidazol-2-yl)cyclohexyl]-3-(2-methylimidazo[2,1-b][1,3]thiazol-6-yl)propanamide triflouroacetate] | 91
Cn1c(=O)[nH]c2cc(C(=O)NC3CCCC(c4nc5ccccc5[nH]4)C3)ccc21 (stereo not shown) [Example 143, N-[3-(1H-benzimidazol-2-yl)cyclohexyl]-1-methyl-2-oxo-2,3-dihydro-1H-benzimidazole-5-carboxamide triflouroacetate] | 87
Cc1ccc(C(=O)NC2CCCC(c3nc4ccccc4[nH]3)C2)c(Cl)n1 (stereo not shown) [Example 124, N-[3-(1H-benzimidazol-2-yl)cyclohexyl]-2-chloro-6-methylnico-tinamide triflouroacetate] | 62
O=C(NC1CCCC1)N[C@@H]1CCC[C@H](c2nc3ccccc3[nH]2)C1 [Example 226, 1-((1R,3S)-3-(1H-benzo[d]imidaz-ol-2-yl)cyclohexyl)-3-cyclopentylurea] | 63
O=C(NC12CCCC(c3nc4ccccc4[nH]3)(C1)C2)c1ccc(C(=O)c2ccccc2)cc1 [Example 278, N-[5-(1H-benzimidazol-2-yl)bicyclo[3.1.1]hept-1-yl]-4-benzoylbenz-amide] | 99.9
O=C(N[C@@H]1CCC[C@H](c2nc3ccccc3[nH]2)C1)c1ccc2c(c1)CN(CC1CC1)CC2 [Example 267, N-[(1R,3S)-3-(1H-benzimidazol-2-yl)cyclohexyl]-2-(cyclopropyl-methyl)-1,2,3,4-tetrahydroiso-quinoline-7-carboxamide HCl] | 103
Cc1ccn2cc(CCC(=O)NC3CCCC(c4nc5ccccc5[nH]4)C3)nc2c1 (stereo not shown) [Example 156, N-[3-(1H-benzimidazol-2-yl)cyclohexyl]-3-(7-methylimidazo [1,2-a]pyridin-2-yl)propanamide triflouroacetate] | 53
Cn1c(C(=O)N[C@@H]2CCC[C@H](c3nc4ccccc4[nH]3)C2)nc2ccccc21 [Example 175, N-[(1R,3S)-3-(1H-benzimidazol-2-yl)cyclohexyl]-1-methyl-1H-benzimidazole-2-carboxamide HCl] | 81

Next, values leading:

inhibition at 2 µM [%] | Molecule
106 | CN(C)CCNc1ccc(C(=O)N[C@@H]2CCC[C@H](c3nc4cc(C(F)(F)F)ccc4[nH]3)C2)cn1 [Example 293, 6-{[2-(dimethylamino)ethyl]amino}-N-{(1R,3S)-3-[5-(trifluoromethyl)-1H-benzimidazol-2-yl]cyclohexyl}-nicotinamide HCl]
111 | CN1C(=O)CCc2cc(C(=O)N[C@@H]3CCC[C@H](c4nc5cc(C(F)(F)F)ccc5[nH]4)C3)ccc21 [Example 304, 1-methyl-2-oxo-N-[(1R,3S)-3-[5-(trifluoromethyl)-1H-benzimidazol-2-yl]cyclohexyl}-1,2,3,4-tetrahydroquin-oline-6-carboxamide (+)-tartrate]
